For assay [1], the target named is T1, c-Met kinase domain recombinant protein (Homo sapiens, UniProt P08581).
T1 construct: 50 μL diluted solution of c-Met kinase domain recombinant protein in reaction buffer was added to initiate the reaction
The assay can be described thus: biochemical. The following applies: for inhibition at 0.1 µM: read-out: Average inhibition rate at 0.1 μM (%); for inhibition at 1 µM: read-out: Average inhibition rate at 1 μM (%). The method, boiled down: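 ELISA on plates coated with Poly(Glu,Tyr)4:1 (20 μg/mL coating solution). Recombinant c-Met kinase domain reacted with 5 μM ATP in HEPES pH 7.4 with Mg/Mn, vanadate and DTT for 1 hour at 37° C. Phosphotyrosine was detected with PY99 and HRP secondary antibody, read at 490 nm, and IC50 was taken from a four-parameter fit.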

The next assay concerns EBC-1 cell. The assay can be described thus: Test III: growth inhibition of non-small cell carcinoma EBC-1 cell (SRB). The following applies: Homo sapiens; for inhibition at 0.2 µM: read-out: Cell proliferation inhibition rate at 200 nM (%); for inhibition at 1 µM: read-out: Cell proliferation inhibition rate at 1 μM (%). Type of assay: cell-based. As for the experimental part: Assays on the growth inhibition of the compounds against gastric tumor cell MKN45, non-small cell carcinoma EBC-1 cell (both are MET persistent activated cell lines due to MET gene amplification, and are Met dependent tumor cell lines, MKN45 cell was purchased from JCRB, Japan, EBC-1 cell was purchased from ATCC, USA) were detected using sulforhodamine B (SRB) staining. […] After incubation with compound for 72 hours, the incubation was terminated, adherent cells were retained and medium was discarded, 10% (w/v) trichloroacetic acid (100 μL pre well) was added, the cells were fixed at 4° C. for 1 hour, then rinsed with distilled water for 5 times, after dried at room temperature, SRB solution (4 mg/mL, dissolved in 1% glacial acetic acid) was added at 100 μL per well, incubated and stained at room temperature for 15 minutes, then rinsed with 1% glacial acetic acid for 5 times to remove any unbound SRB, dried at room temperature, then 10 mM Tris solution was added at 100 μL per well, the optical density (OD) value at 515 nm was measured using VERSMax microplate reader.
Experiments were conducted in duplicates. IC50 value was calculated by fitting the data for a four parameter fit using inhibition curve, the results are shown below in Table 2.

Read-outs that look alike come from different tables or passages of the source.

The values below come from patent US9988381B2, “Five-member-heterocycle fused pyridine compounds, method of producing the same, and use thereof” (SHANGHAI INSTITUTE OF MATERIA MEDICA, CHINESE ACADEMY OF …, priority 2013, dated 2018).

One may read the IC50 as the concentration that gives 50% inhibition.

T1 sequence (P08581 1078-1345 limits assumed): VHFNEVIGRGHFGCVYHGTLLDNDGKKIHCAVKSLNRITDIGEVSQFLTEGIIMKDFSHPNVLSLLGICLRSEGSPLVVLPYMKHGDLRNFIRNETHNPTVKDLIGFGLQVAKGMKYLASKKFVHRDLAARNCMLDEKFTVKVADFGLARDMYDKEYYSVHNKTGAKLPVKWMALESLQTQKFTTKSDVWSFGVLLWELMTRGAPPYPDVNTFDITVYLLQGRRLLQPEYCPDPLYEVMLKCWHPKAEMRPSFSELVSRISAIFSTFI

On to `CC(C)c1c(-c2cnn(C)c2)cnc2cnn(S(=O)(=O)c3cnc4ccc(-c5cnn(C)c5)cn34)c12` [Example 103, 1-{(6-[(1-methyl)-4-pyrazolyl]-imidazo[1,2-a]pyridine)-3-sulfonyl}-6-[(1-methyl)-4-pyrazolyl]-7-isopropyl-1-H-pyrazolo[4,3-b]pyridine], for which, in assay [1], the IC50 is 3.2 ± 0.3 nM, the inhibition at 0.1 µM came out at 98.5% and the inhibition at 1 µM amounted to 101%. Further, in the assay on EBC-1 cell (EBC-1, 72 h), the inhibition at 0.2 µM was 80.9% and the inhibition at 1 µM turned out to be 92.7%.

As to `O=S(=O)(c1cnc2ccc(-c3cn[nH]c3)cn12)n1ncc2ncc(-c3cn[nH]c3)cc21` [Example 104, 1-{[6-(4-pyrazolyl)-imidazo[1,2-a]pyridine]-3-sulfonyl}-6-(4-pyrazolyl)-1-H-pyrazolo[4,3-b]pyridine], in assay [1], the IC50 turned out to be 2.1 ± 0.6 nM, the inhibition at 0.1 µM stood at 99.8% and the inhibition at 1 µM came to 100%. Also, in the assay with EBC-1 cell (EBC-1, 72 h), the inhibition at 0.2 µM was 85.7% and the inhibition at 1 µM was found to be 89.2%.

Turning to `Cn1cc(-c2cnc3cnn(S(=O)(=O)c4cnc5ccc(-c6cn[nH]c6)cn45)c3c2)cn1` [Example 105, 1-{[6-(4-pyrazolyl)-imidazo[1,2-a]pyridine]-3-sulfonyl}-6-[(1-methyl)-4-pyrazolyl]-1-H-pyrazolo[4,3-b]pyridine], in assay [1], the half-inhibitory concentration (IC50) was 2.6 ± 0.4 nM, the inhibition at 0.1 µM came out at 97.8% and the inhibition at 1 µM came to 100%. Besides, in the assay on EBC-1 cell (EBC-1, 72 h), the inhibition at 0.2 µM amounted to 77.7% and the inhibition at 1 µM amounted to 91.5%.

`Cn1cc(-c2ccc3ncc(S(=O)(=O)n4ncc5ncc(-c6cn[nH]c6)cc54)n3c2)cn1` [Example 106, 1-{(6-[(1-methyl)-4-pyrazolyl]-imidazo[1,2-a]pyridine)-3-sulfonyl}-6-(4-pyrazolyl)-1-H-pyrazolo[4,3-b]pyridine]: in assay [1], the IC50 amounted to 1.9 ± 0.1 nM, the inhibition at 0.1 µM stood at 104% and the inhibition at 1 µM came out at 101%. Besides, in the assay with EBC-1 cell (EBC-1, 72 h), the inhibition at 0.2 µM came to 37% and the inhibition at 1 µM amounted to 85.7%.

In the case of `Cn1cc(-c2cnc3[nH]cc(S(=O)(=O)n4ncc5cccnc54)c3c2)cn1` [Example 107, 1-{(5-[(1-methyl)-4-pyrazolyl])-1-H-pyrrolo [2,3-b]pyridine-3-sulfonyl}-1-H-pyrazolo[3,4-b]pyridine], in assay [1], the inhibition at 0.1 µM was 29.1% and the inhibition at 1 µM came to 88.2%. For the same compound, the inhibition at 0.2 µM with EBC-1 cell (EBC-1, 200 nM, 72 hours) stood at 18.9%. For the same compound, the inhibition at 1 µM in the assay with EBC-1 cell (EBC-1, 1 μM, 72 hours) was determined as 18.1%.

Regarding `CCOc1cccc(-c2cnc3cnn(S(=O)(=O)c4cnc5ccc([N+](=O)[O-])cn45)c3c2)c1` [Example 113, 1-[(6-nitro-imidazo[1,2-a]pyridine)-3-sulfonyl]-6-(3-ethoxyphenyl)-1-H-pyrazolo[4,3-b]pyridine], in assay [1], the inhibition at 0.1 µM came out at 48.6% and the inhibition at 1 µM worked out at 97.7%. Further, the inhibition at 0.2 µM with EBC-1 cell (EBC-1, 200 nM, 72 hours) is 7.9%. In the assay with EBC-1 cell (EBC-1, 1 μM, 72 hours), the inhibition at 1 µM worked out at 9%.

Regarding `COc1ccc2ncc(S(=O)(=O)n3ncc4ncc(-c5cnn(C)c5)cc43)n2c1` [Example 121, 1-[(6-methoxy-imidazo[1,2-a]pyridine)-3-sulfonyl]-6-[(1-methyl)-4-pyrazolyl]-1-H-pyrazolo[4,3-b]pyridine], in assay [1], the IC50 is 9 ± 1 nM, the inhibition at 0.1 µM turned out to be 99% and the inhibition at 1 µM is 101%. In the assay with EBC-1 cell (EBC-1, 72 h), the inhibition at 0.2 µM was 91.6% and the inhibition at 1 µM came to 92.5%.

`COc1ccc2ncc(S(=O)(=O)n3ncc4ncc(-c5ccc(N6CCOCC6)cc5)cc43)n2c1` [Example 124, 1-[(6-methoxy-imidazo[1,2-a]pyridine)-3-sulfonyl]-6-(4-morpholinylphenyl)-1-H-pyrazolo[4,3-b]pyridine]: in assay [1], the half-inhibitory concentration (IC50) came to 4.7 ± 1 nM, the inhibition at 0.1 µM worked out at 94.4% and the inhibition at 1 µM turned out to be 99.7%. In the assay on EBC-1 cell (EBC-1, 72 h), the inhibition at 0.2 µM came out at 43.1% and the inhibition at 1 µM came to 92.7%.

With `COc1ccc(-c2cnc3cnn(S(=O)(=O)c4cnc5ccc(O)cn45)c3c2)cc1` [Example 126, 1-[(6-hydroxy-imidazo[1,2-a]pyridine)-3-sulfonyl]-6-(4-methoxyphenyl)-1-H-pyrazolo[4,3-b]pyridine], in assay [1], the IC50 worked out at 7.3 ± 1.1 nM, the inhibition at 0.1 µM came out at 100% and the inhibition at 1 µM came to 100%. For the same compound, in the assay on EBC-1 cell (EBC-1, 72 h), the inhibition at 0.2 µM was determined as 35.1% and the inhibition at 1 µM was determined as 87%.

On to `CC(C)C(=O)Oc1ccc2ncc(S(=O)(=O)n3ncc4ncc(-c5cnn(C)c5)cc43)n2c1` [Example 128, 1-[(6-isobutyryloxy-imidazo[1,2-a]pyridine)-3-sulfonyl]-6-[(1-methyl)-4-pyrazolyl]-1-H-pyrazolo[4,3-b]pyridine], for which, in assay [1], the IC50 was 2 ± 0.2 nM, the inhibition at 0.1 µM was 99.4% and the inhibition at 1 µM worked out at 99.3%. In the assay on EBC-1 cell (EBC-1, 72 h), the inhibition at 0.2 µM worked out at 80.6% and the inhibition at 1 µM is 87%.

As for `Cn1cc(-c2cnc3cnn(S(=O)(=O)c4cnc5ccc(OC(=O)c6ccco6)cn45)c3c2)cn1` [Example 129, 1-[(6-furan-2-acyloxy-imidazo[1,2-a]pyridine)-3-sulfonyl]-6-[(1-methyl)-4-pyrazolyl]-1-H-pyrazolo[4,3-b]pyridine], in assay [1], the IC50 was 2.7 ± 0.5 nM, the inhibition at 0.1 µM worked out at 99.6% and the inhibition at 1 µM turned out to be 101%. Moreover, in the assay on EBC-1 cell (EBC-1, 72 h), the inhibition at 0.2 µM was found to be 79% and the inhibition at 1 µM worked out at 86.6%.

For the compound `CCC(=O)Nc1cnc2cnn(S(=O)(=O)c3cnc4ccc(Br)cn34)c2c1` [Example 132, 1-[(6-bromo-imidazo[1,2-a]pyridine)-3-sulfonyl]-6-propionamido-1-H-pyrazolo[4,3-b]pyridine], the inhibition at 0.1 µM in assay [1] came to 92.1%. For the same compound, the inhibition at 1 µM in assay [1] was 100%; with EBC-1 cell (EBC-1, 1 μM, 72 hours) it was 85.4%. Moreover, the inhibition at 0.2 µM in the assay on EBC-1 cell (EBC-1, 200 nM, 72 hours) turned out to be 48.2%.

As for `Cn1cc(-c2ccc3ncc(S(=O)(=O)n4ncc5ncc(NC(=O)c6ccccc6)cc54)n3c2)cn1` [Example 133, 1-{(6-[(1-methyl)-4-pyrazolyl]-imidazo[1,2a]pyridine)-3-sulfonyl}-6-benzamido-1-H-pyrazolo[4,3-b]pyridine], in assay [1], the concentration for half-maximal inhibition (IC50) worked out at 2.6 ± 0.2 nM, the inhibition at 0.1 µM amounted to 100% and the inhibition at 1 µM worked out at 100%. Moreover, in the assay with EBC-1 cell (EBC-1, 72 h), the inhibition at 0.2 µM was determined as 86.4% and the inhibition at 1 µM stood at 87.8%.

As to `Cn1cc(-c2ccc3ncc(S(=O)(=O)n4ncc5ncc(C6=CCN(C7CCCC7)CC6)cc54)n3c2)cn1` [Example 135, 1-{(6-[(1-methyl)-4-pyrazolyl]-imidazo[1,2-a]pyridine)-3-sulfonyl}-6-[(1-cyclopentyl)-4-(1,2,3,6-tetrahydropyridinyl)]-1-H-pyrazolo[4,3-b]pyridine], in assay [1], the IC50 came to 2.6 ± 0.2 nM, the inhibition at 0.1 µM was 87.4% and the inhibition at 1 µM was 88.2%. Further, in the assay with EBC-1 cell (EBC-1, 72 h), the inhibition at 0.2 µM was determined as 89.4% and the inhibition at 1 µM was 91.4%.

As to `Cn1cc(-c2ccc3ncc(S(=O)(=O)n4ncc5ncc(-c6cnn(C7CCN(C8CCCC8)CC7)c6)cc54)n3c2)cn1` [Example 136, 1-{(6-[(1-methyl)-4-pyrazolyl]-imidazo[1,2-a]pyridine)-3-sulfonyl}-6-{{1-[(1-cyclopentyl)-4-piperidinyl]}-4-pyrazolyl}-1-H-pyrazolo[4,3-b]pyridine], in assay [1], the 50% inhibitory concentration (IC50) amounted to 1.2 ± 0.1 nM, the inhibition at 0.1 µM was determined as 90.2% and the inhibition at 1 µM worked out at 91.3%. Moreover, in the assay on EBC-1 cell (EBC-1, 72 h), the inhibition at 0.2 µM came out at 91.4% and the inhibition at 1 µM was determined as 92.4%.

`CC(C)N1CC=C(c2cnc3cnn(S(=O)(=O)c4cnc5ccc(-c6cnn(C)c6)cn45)c3c2)CC1` [Example 137, 1-{(6-[(1-methyl)-4-pyrazolyl]-imidazo[1,2-a]pyridine)-3-sulfonyl}-6-[(1-isopropyl)-4-(1,2,3,6-tetrahydropyridinyl)]-1-H-pyrazolo[4,3-b]pyridine]: in assay [1], the half-maximal inhibitory concentration (IC50) stood at 1.3 ± 0.1 nM, the inhibition at 0.1 µM turned out to be 91.6% and the inhibition at 1 µM stood at 89.9%. Also, in the assay with EBC-1 cell (EBC-1, 72 h), the inhibition at 0.2 µM worked out at 73% and the inhibition at 1 µM worked out at 92.4%.

Take `CCN1CCC(n2cc(-c3cnc4cnn(S(=O)(=O)c5cnc6ccc(-c7cnn(C)c7)cn56)c4c3)cn2)CC1` [Example 138, 1-{(6-[(1-methyl)-4-pyrazolyl]-imidazo[1,2-a]pyridine)-3-sulfonyl}-6-{{1-[(1-ethyl)-4-piperidinyl]}-4-pyrazolyl}-1-H-pyrazolo[4,3-b]pyridine]: in assay [1], the concentration for half-maximal inhibition (IC50) amounted to 0.6 ± 0.01 nM, the inhibition at 0.1 µM was 87.7% and the inhibition at 1 µM came to 90.5%. In the assay on EBC-1 cell (EBC-1, 72 h), the inhibition at 0.2 µM amounted to 90.9% and the inhibition at 1 µM was 92.9%.
